{"source": "patent US20050085645A1", "about": "“O-(3-chloropropenyl) hydroxylamine free base” (priority 2003, published 2005)", "key": {"[1]": {"assay": "Solubility / miscibility in water", "assay_type": "physicochemical"}, "[2]": {"assay": "Storage stability of CPHA free base and CPHA-HCl solutions (decomposition / GC purity drop)", "assay_type": "physicochemical", "description": "Neither preparation nor applications of solvent-free CPHA free base or aqueous CPHA solution has been reported in the prior art. […] For example, a commercial 40% CPHA-HCl solution decomposes by 52% after 23 days at 35° C., whereas, a 85% CPHA aqueous solution has only 1.1% purity drop after 78 days at 40° C.\nThe GC method set up for CPHA purity, impurity profile, and hydroxylamine content determination is described as follows. • Instrument: HP 6890 series GC system. • Column: HP-1 capillary column, 10 m×0.53 mm×[…]. • Detector: FID, 250° C. • Inlet: 200° C. • Oven Temperature program: • Initial temperature: 40° C. • Initial time: 2 minutes. • Ramps: 10° C./min, 65° C., 0 minutes • 20° C./min, 250° C., 3 minutes.\nWeigh about 2.00 g of sample in a vial containing 2.20 g of cyclohexanone; Add 50% sodium hydroxide if necessary to bring pH to above 9. Stir the mixture in the capped vial at 50° C. for 2 hours. After cooling, add 8.0 g of dichloromethane and shake for one minute. Settle the mixture for 5 minutes. Take the organic phase for gas chromatographic (GC) analysis. CPHA purity and impurity profile are directly based on GC area. Hydroxylamine content is calculated based on the integration area of cyclohexanone oxime (cyclohexanoxime) peak and O-(chloro-2-propenyl)cyclohexanoxime peak."}, "[3]": {"assay": "Solubility in organic solvents", "assay_type": "physicochemical", "settings": "ethers, alcohol, toluene, chlorinated alkanes", "from_the_text": "For example, to make a O-(3-chloro-2-propenyl)hydroxylamine solution in dichloromethane, CPHA is simply mixed with dichloromethane. No exotherm was observed."}, "plants": {"system": "plants", "assay": "Herbicidal potency of clethodim enantiomer versus racemate", "assay_type": "in vivo", "settings": "used in a herbicidal composition; no test data given"}}, "data": [{"smiles": "Cl.NOCC=CCl", "note": "[CPHA-HCl, O-(3-chloro-2-propenyl)hydroxylamine hydrochloride, reference compound]", "values": [{"measurement": "maximum solubility", "setting": "[1]; commercially available CPHA-HCl solution in water", "value": "about 45%"}, {"measurement": "decomposition of solution", "setting": "[2]; commercial 40% CPHA-HCl solution, after 23 days at 35° C.", "value": 52, "unit": "%"}]}, {"smiles": "NOCC=CCl", "note": "[CPHA, O-(3-Chloro-2-propenyl)hydroxylamine]", "values": [{"measurement": "miscibility with water", "setting": "[1]; room temperature", "value": "miscible with water"}, {"measurement": "purity drop", "setting": "[2]; 85% CPHA aqueous solution, after 78 days at 40° C.", "value": 1.1, "unit": "%"}, {"measurement": "solubility in organic solvents", "setting": "[3]", "value": "soluble in many organic solvents"}]}, {"smiles": "CCSC(C)CC1CC(=O)C(/C(CC)=N/OC/C=C/Cl)=C(O)C1", "note": "(single isomer, unassigned; (-)) [(−) clethodim]", "values": [{"measurement": "potency compared to the racemic form or (+) clethodim", "setting": "plants", "value": "increased potency"}]}]}
